pKd: −log10 of the molar value.

galectin-3, sequence (P17931 whole entry): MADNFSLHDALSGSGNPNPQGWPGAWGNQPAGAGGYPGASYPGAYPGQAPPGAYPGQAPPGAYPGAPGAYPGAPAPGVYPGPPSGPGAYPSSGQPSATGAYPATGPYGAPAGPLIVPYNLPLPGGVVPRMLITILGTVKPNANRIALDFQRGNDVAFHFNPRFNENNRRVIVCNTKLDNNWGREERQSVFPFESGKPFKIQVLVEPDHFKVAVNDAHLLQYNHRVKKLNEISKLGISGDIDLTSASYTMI

In this assay the target is galectin-3 (Homo sapiens (Human), UniProt P17931). Description: Fluorescence anisotropy assay of galectin-3 affinity (compound inhibits galectin binding to a fluorescein tagged saccharide probe). The settings on record: high affinity probe, 50 nM galectin-3, 100 nM albumin. How it is done:
100 nM albumin was included as a carrier to prevent protein loss at such low concentration of galectin.
For orientation: In fluorescence polarisation assays a small probe gives low polarisation when free and higher when bound to something large.
With `[O-][S+](c1ccc(Cl)c(Cl)c1)[C@H]1O[C@H](CO)[C@H](O)[C@H](n2cc(-c3c(F)c(F)c(F)c(F)c3F)nn2)[C@H]1O` (stereo partly drawn) [Example 42, 3,4-Dichlorophenyl 3-deoxy-3-[4-(2,3,4,5,6-pentafluorophenyl)-1H-1,2,3-triazol-1-yl]-α-D-galactopyranosyl sulfoxide], the pKd (commonly the Kd on a negative log10 scale, so that one unit is a factor of ten) was 8.70. Turning to `OCC1O[C@H](SC2CCCC(F)(F)C2)C(O)[C@@H](n2cc(-c3cc(F)c(F)c(F)c3)nn2)[C@H]1O` (stereo partly drawn) [Example 76, 3,3′-difluoro-cyklohexyl 3-deoxy-3-[4-(3,4,5-trifluorophenyl)-1H-1,2,3-triazol-1-yl]-1-thio-α-D-galactopyranoside], the pKd was 6.62. In turn, `OC[C@H]1O[C@H](Sc2cc(Cl)c(Cl)cc2Cl)[C@H](O)[C@@H](n2cc(-c3cc(F)c(F)c(F)c3)nn2)[C@H]1O` [Example 36, 2,4,5-Trichlorophenyl 3-deoxy-3-[4-(3,4,5-trifluorophenyl)-1H-1,2,3-triazol-1-yl]-1-thio-α-D-galactopyranoside] showed a pKd of 7.22. As for `CCOC(=O)c1cn([C@@H]2[C@@H](O)[C@@H](Sc3ccc(Cl)c(Cl)c3)O[C@H](CO)[C@@H]2O)nn1` [Example 97, 3,4-Dichlorophenyl 3-deoxy-3-[4-(ethoxycarbonyl)-1H-1,2,3-triazol-1-yl]-1-thio-α-D-galactopyranoside], the figure is 5.46; as for `COc1ccc(Cl)cc1S[C@H]1OC(CO)[C@H](O)[C@H](n2cc(-c3cc(F)c(F)c(F)c3)nn2)C1O` (stereo partly drawn) [Example 65, 5-Chloro-2-methoxyphenyl 3-deoxy-1-thio-3-[4-(3,4,5-trifluorophenyl)-1H-1,2,3-triazol-1-yl]-α-D-galactopyranoside], 7.08. The value for `OC[C@H]1O[C@H](Sc2cccc(O)c2)[C@H](O)[C@@H](n2cc(-c3cc(F)c(F)c(F)c3)nn2)[C@H]1O` [Example 38, 3-Hydroxy-phenyl 3-deoxy-3-[4-(3,4,5-trifluorophenyl)-1H-1,2,3-triazol-1-yl]-1-thio-α-D-galactopyranoside] was 6.31; that for `CN(C)c1cccc2cc(S(=O)(=O)[C@H]3OC(CO)[C@H](O)[C@H](n4cc(-c5cc(F)c(F)c(F)c5)nn4)C3O)ccc12` (stereo partly drawn) [Example 95, 5-Dimethylamino-naphtalen-2-yl 3-deoxy-3-[4-(3,4,5-trifluorophenyl)-1H-1,2,3-triazol-1-yl]-α-D-galactopyranosyl sulfone] was 6.02; that for `CCCC(=O)c1cn([C@@H]2[C@@H](O)[C@@H](Sc3ccc(Cl)c(Cl)c3)O[C@H](CO)[C@@H]2O)nn1` [Example 102, 3,4-Dichlorophenyl 3-deoxy-3-[4-(propyl-carbonyl)-1H-1,2,3-triazol-1-yl]-1-thio-α-D-galactopyranoside] was 6.00. The value for `OC[C@H]1O[C@H](Sc2cccc(Cl)c2)[C@H](O)[C@@H](n2cc(-c3cc(F)c(F)c(F)c3)nn2)[C@H]1O` [Example 19, 3-Chlorophenyl 3-deoxy-3-[4-(3,4,5-trifluorophenyl)-1H-1,2,3-triazol-1-yl]-1-thio-α-D-galactopyranoside] was 7.31; that for `OC[C@H]1O[C@H](Sc2ccc(F)cc2)[C@H](O)[C@@H](n2cc(-c3cc(F)c(F)c(F)c3)nn2)[C@H]1O` [Example 30, 4-Fluorophenyl 3-deoxy-3-[4-(3,4,5-trifluorophenyl)-1H-1,2,3-triazol-1-yl]-1-thio-α-D-galactopyranoside] was 6.57; that for `OCC1O[C@H](SCCc2ccccc2)C(O)[C@@H](n2cc(-c3cc(F)c(F)c(F)c3)nn2)[C@H]1O` (stereo partly drawn) [Example 40, 2-Phenethyl 3-deoxy-3-[4-(3,4,5-trifluorophenyl)-1H-1,2,3-triazol-1-yl]-1-thio-α-D-galactopyranoside] was 6.32. The compound `OC[C@H]1O[C@H](Sc2cccc(Br)c2)[C@H](O)[C@@H](n2cc(-c3cc(F)c(F)c(F)c3)nn2)[C@H]1O` [Example 2, 3-Bromophenyl 3-deoxy-3-[4-(3,4,5-trifluorophenyl)-1H-1,2,3-triazol-1-yl]-1-thio-α-D-galactopyranoside] showed a pKd of 7.43.

`OC[C@H]1O[C@H](Sc2cc(Cl)ccc2Cl)[C@H](O)[C@@H](n2cc(-c3cc(F)c(F)c(F)c3)nn2)[C@H]1O` [Example 37, 2,5-Dichlorophenyl 3-deoxy-3-[4-(3,4,5-trifluorophenyl)-1H-1,2,3-triazol-1-yl]-1-thio-α-D-galactopyranoside]: the pKd was 7.08. This pKd is 0.35 log units lower than that of the compound before. As to `[O-][S+](c1cncc(Br)c1)[C@H]1O[C@H](CO)[C@H](O)[C@H](n2cc(-c3cc(F)c(F)c(F)c3)nn2)[C@H]1O` (single isomer, unassigned; isomer 2) [Example 91, 5-Bromopyridin-3-yl 3-deoxy-3-[4-(3,4,5-trifluorophenyl)-1H-1,2,3-triazol-1-yl]-α-D-galactopyranosyl sulfoxide, isomer 2], the pKd is 6.89. For `Cc1cccc(C)c1S[C@H]1O[C@H](CO)[C@H](O)[C@H](n2cc(-c3cc(F)c(F)c(F)c3)nn2)[C@H]1O` [Example 17, 2,6-Dimethylphenyl 3-deoxy-3-[4-(3,4,5-trifluorophenyl)-1H-1,2,3-triazol-1-yl]-1-thio-α-D-galactopyranoside], the pKd was 5.80. As for `OCC1O[C@H](Sc2ccc3ccccc3c2)C(O)[C@@H](n2cc(-c3cc(F)c(F)c(F)c3)nn2)[C@H]1O` (stereo partly drawn) [Example 12, 2-Naphtyl 3-deoxy-3-[4-(3,4,5-trifluorophenyl)-1H-1,2,3-triazol-1-yl]-1-thio-α-D-galactopyranoside], the figure is 6.74. As for `OC[C@H]1O[C@H](Sc2ccc(F)c(Cl)c2)[C@H](O)[C@@H](n2cc(-c3cc(F)c(F)c(F)c3)nn2)[C@H]1O` [Example 28, 3-Chloro-4-fluorophenyl 3-deoxy-3-[4-(3,4,5-trifluorophenyl)-1H-1,2,3-triazol-1-yl]-1-thio-α-D-galactopyranoside], the figure is 7.32; as for `OCC1O[C@H](Sc2ccccn2)C(O)[C@@H](n2cc(-c3cc(F)c(F)c(F)c3)nn2)[C@H]1O` (stereo partly drawn) [Example 21, 2-Pyridyl 3-deoxy-3-[4-(3,4,5-trifluorophenyl-1H-1,2,3-triazol-1-yl]-)-1-thio-α-D-galactopyranoside], 6.29. As for `O=S(=O)(c1cncc(Br)c1)[C@H]1O[C@H](CO)[C@H](O)[C@H](n2cc(-c3cc(F)c(F)c(F)c3)nn2)[C@H]1O` [Example 92, 5-Bromopyridin-3-yl 3-deoxy-3-[4-(3,4,5-trifluorophenyl)-1H-1,2,3-triazol-1-yl]-α-D-galactopyranosyl sulfone], the figure is 7.51; as for `OC[C@H]1O[C@H](Sc2ccc(F)c(Br)c2)[C@H](O)[C@@H](n2cc(-c3cc(F)c(F)c(F)c3)nn2)[C@H]1O` [Example 60, 3-Bromo-4-fluorophenyl 3-deoxy-3-[4-(3,4,5-trifluorophenyl)-1H-1,2,3-triazol-1-yl]-1-thio-α-D-galactopyranoside], 7.62; as for `OCC1O[C@H](Sc2cccc3ccccc23)C(O)[C@@H](n2cc(-c3cc(F)c(F)c(F)c3)nn2)[C@H]1O` (stereo partly drawn) [Example 18, 1-Naphthyl 3-deoxy-1-thio-3-[4-(3,4,5-trifluorophenyl)-1H-1,2,3-triazol-1-yl]-1-thio-α-D-galactopyranoside], 6.02.

With `O=S(=O)(c1ccc(Cl)c(Cl)c1)[C@H]1O[C@H](CO)[C@H](O)[C@H](n2cc(-c3cc(F)c(F)c(F)c3)nn2)[C@H]1O` [Example 25, 3,4-Dichlorophenyl 3-deoxy-3-[4-(3,4,5-trifluorophenyl)-1H-1,2,3-triazol-1-yl]-α-D-galactopyranosyl sulfone], the pKd is 7.21. `OC[C@H]1O[C@H](Sc2ccc(OC(F)(F)F)cc2)[C@H](O)[C@@H](n2cc(-c3cc(F)c(F)c(F)c3)nn2)[C@H]1O` [Example 31, 4-Trifluoromethoxyphenyl 3-deoxy-3-[4-(3,4,5-trifluorophenyl)-1H-1,2,3-triazol-1-yl]-1-thio-α-D-galactopyranoside] had a pKd of 6.55. The value for `OCC1O[C@H](SCc2ccccc2)C(O)[C@@H](n2cc(-c3cc(F)c(F)c(F)c3)nn2)[C@H]1O` (stereo partly drawn) [Example 10, Benzyl 3-deoxy-1-thio-3-[4-(3,4,5-trifluorophenyl)-1H-1,2,3-triazol-1-yl]-1-thio-α-D-galactopyranoside] was 5.95; that for `[O-][S+](c1ccc(Cl)c(Cl)c1)[C@H]1O[C@H](CO)[C@H](O)[C@H](n2cc(-c3cc(F)c(F)c(F)c3)nn2)[C@H]1O` (stereo partly drawn) [Example 24, 3,4-Dichlorophenyl 3-deoxy-3-[4-(3,4,5-trifluorophenyl)-1H-1,2,3-triazol-1-yl]-α-D-galactopyranosyl sulfoxide] was 8.00. The value for `O=c1oc2ccc(F)c(F)c2cc1CO[C@@H]1[C@@H](O)[C@@H](Sc2ccc(Cl)c(Cl)c2)O[C@H](CO)[C@@H]1O` [Example 99, 3,4-Dichlorophenyl 3-O-[(5,6-Difluoro-2-oxo-3-chromenyl)methyl]-1-thio-α-D-galactopyranoside] was 6.04; that for `[O-][S+](c1cncc(Cl)c1)[C@H]1OC(CO)[C@H](O)[C@H](n2cc(-c3cc(F)c(F)c(F)c3)nn2)C1O` (single isomer, unassigned; isomer 2) [Example 94, 5-Chloropyridin-3-yl 3-deoxy-3-[4-(3,4,5-trifluorophenyl)-1H-1,2,3-triazol-1-yl]-α-D-galactopyranosyl sulfoxide, isomer 2] was 7.39; that for `Cc1cccc(S[C@H]2O[C@H](CO)[C@H](O)[C@H](n3cc(-c4cc(F)c(F)c(F)c4)nn3)[C@H]2O)c1` [Example 13, 3-Methylphenyl 3-deoxy-3-[4-(3,4,5-trifluorophenyl)-1H-1,2,3-triazol-1-yl]-1-thio-α-D-galactopyranoside] was 6.62. The value for `[O-][S+](c1cncc(Br)c1)[C@H]1O[C@H](CO)[C@H](O)[C@H](n2cc(-c3cc(F)c(F)c(F)c3)nn2)[C@H]1O` (single isomer, unassigned; isomer 1) [Example 90, 5-Bromopyridin-3-yl 3-deoxy-3-[4-(3,4,5-trifluorophenyl)-1H-1,2,3-triazol-1-yl]-α-D-galactopyranosyl sulfoxide, isomer 1] was 7.55.

Source of the values: patent US10774102B2, “Galactoside inhibitor of galectins” (Galecto Biotech AB, priority 2015, dated 2020).
